Measured values published in article PMC7613998, “Development of selective inhibitors of phosphatidylinositol 3-kinase C2α” (Nature Chemical Biology, 2022).

How the values were obtained:
Experiment in all cases: biochemical
Parameters in all cases: SelectScreen Z'-LYTE purified kinase panel, per cent inhibition, mean of two points
[1] = target: IGF1R (Homo sapiens, UniProt P08069); conditions: (μM)=Km app
[2] = target: T1, PDK1 (Homo sapiens, UniProt O15530); conditions: (μM)=100
T1 construct: gene PDPK1
T1 sequence (O15530 1-556): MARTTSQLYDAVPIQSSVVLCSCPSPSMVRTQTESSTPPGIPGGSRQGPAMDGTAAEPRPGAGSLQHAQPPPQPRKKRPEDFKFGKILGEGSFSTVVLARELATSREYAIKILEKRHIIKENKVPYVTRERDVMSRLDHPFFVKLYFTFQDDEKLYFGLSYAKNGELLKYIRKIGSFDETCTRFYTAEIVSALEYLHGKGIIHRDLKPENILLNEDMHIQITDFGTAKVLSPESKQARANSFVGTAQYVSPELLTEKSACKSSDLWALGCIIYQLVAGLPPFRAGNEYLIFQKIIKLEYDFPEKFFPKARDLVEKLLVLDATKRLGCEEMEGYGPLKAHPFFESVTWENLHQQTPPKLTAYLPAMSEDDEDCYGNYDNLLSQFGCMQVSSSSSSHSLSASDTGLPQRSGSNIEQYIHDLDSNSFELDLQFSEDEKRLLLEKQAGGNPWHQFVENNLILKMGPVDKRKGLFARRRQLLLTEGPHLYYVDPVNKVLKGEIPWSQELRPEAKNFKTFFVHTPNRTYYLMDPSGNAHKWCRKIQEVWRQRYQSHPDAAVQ

[3] = target: GSK3B (GSK3 beta) (Homo sapiens, UniProt P49841); conditions: (μM)=Km app
[4] = target: T2, LYN A (Homo sapiens, UniProt P07948); conditions: (μM)=Km app
T2 construct: isoform A

[5] = target: ABL1 E255K (Homo sapiens, UniProt P00519, E255K); conditions: (μM)=Km app
[6] = target: AKT1 (PKB alpha) (Homo sapiens, UniProt P31749); conditions: (μM)=Km app
[7] = target: PTK2 (FAK) (Homo sapiens, UniProt Q05397); conditions: (μM)=Km app
[8] = target: PRKCA (PKC alpha) (Homo sapiens, UniProt P17252); conditions: (μM)=Km app
[9] = target: T3, PRKCE (PKC epsilon) (Homo sapiens, UniProt Q02156); conditions: (μM)=Km app
T3 sequence (Q02156 1-737): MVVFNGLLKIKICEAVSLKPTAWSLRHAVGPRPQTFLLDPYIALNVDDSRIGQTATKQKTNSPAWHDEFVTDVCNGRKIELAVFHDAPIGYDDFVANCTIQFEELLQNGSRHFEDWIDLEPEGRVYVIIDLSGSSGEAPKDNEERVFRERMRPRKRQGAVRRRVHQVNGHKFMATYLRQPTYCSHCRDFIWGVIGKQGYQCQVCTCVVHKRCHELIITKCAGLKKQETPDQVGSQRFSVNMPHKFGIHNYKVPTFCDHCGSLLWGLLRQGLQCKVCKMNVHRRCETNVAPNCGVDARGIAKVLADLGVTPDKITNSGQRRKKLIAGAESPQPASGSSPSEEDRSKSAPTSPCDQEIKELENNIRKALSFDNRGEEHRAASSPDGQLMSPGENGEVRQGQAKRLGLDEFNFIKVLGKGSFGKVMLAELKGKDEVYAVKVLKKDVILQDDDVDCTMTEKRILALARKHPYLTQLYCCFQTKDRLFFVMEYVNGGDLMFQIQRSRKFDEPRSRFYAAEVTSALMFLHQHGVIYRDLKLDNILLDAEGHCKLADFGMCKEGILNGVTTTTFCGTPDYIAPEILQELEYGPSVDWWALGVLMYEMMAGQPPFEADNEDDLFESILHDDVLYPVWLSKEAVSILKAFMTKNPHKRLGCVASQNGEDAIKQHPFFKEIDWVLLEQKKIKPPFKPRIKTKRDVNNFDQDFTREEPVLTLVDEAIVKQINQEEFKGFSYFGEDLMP

[10] = target: PIM1 (Homo sapiens, UniProt P11309); conditions: (μM)=Km app
Chain of PIM1 (P11309 whole entry): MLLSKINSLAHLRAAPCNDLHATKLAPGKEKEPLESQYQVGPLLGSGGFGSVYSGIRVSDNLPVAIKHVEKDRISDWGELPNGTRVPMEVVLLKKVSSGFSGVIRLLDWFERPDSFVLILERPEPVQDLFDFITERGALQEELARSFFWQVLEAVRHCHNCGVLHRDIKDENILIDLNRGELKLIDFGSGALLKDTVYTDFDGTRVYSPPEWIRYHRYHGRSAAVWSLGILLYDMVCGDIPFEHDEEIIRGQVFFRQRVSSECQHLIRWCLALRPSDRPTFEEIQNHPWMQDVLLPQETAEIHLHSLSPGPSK

Chain of AKT1 (PKB alpha) (P31749 whole entry): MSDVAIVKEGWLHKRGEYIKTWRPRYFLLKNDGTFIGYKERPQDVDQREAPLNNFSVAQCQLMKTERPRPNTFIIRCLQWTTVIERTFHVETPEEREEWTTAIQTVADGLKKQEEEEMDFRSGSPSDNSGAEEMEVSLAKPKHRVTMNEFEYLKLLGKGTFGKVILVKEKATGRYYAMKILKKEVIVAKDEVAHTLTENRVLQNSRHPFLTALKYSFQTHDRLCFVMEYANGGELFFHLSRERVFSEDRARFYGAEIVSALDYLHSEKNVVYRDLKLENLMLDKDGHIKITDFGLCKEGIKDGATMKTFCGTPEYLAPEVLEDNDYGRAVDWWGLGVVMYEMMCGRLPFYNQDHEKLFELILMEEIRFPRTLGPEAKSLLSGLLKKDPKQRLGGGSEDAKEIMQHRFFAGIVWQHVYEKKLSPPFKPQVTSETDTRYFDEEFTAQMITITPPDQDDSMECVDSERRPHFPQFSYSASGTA
Chain of IGF1R (P08069 whole entry): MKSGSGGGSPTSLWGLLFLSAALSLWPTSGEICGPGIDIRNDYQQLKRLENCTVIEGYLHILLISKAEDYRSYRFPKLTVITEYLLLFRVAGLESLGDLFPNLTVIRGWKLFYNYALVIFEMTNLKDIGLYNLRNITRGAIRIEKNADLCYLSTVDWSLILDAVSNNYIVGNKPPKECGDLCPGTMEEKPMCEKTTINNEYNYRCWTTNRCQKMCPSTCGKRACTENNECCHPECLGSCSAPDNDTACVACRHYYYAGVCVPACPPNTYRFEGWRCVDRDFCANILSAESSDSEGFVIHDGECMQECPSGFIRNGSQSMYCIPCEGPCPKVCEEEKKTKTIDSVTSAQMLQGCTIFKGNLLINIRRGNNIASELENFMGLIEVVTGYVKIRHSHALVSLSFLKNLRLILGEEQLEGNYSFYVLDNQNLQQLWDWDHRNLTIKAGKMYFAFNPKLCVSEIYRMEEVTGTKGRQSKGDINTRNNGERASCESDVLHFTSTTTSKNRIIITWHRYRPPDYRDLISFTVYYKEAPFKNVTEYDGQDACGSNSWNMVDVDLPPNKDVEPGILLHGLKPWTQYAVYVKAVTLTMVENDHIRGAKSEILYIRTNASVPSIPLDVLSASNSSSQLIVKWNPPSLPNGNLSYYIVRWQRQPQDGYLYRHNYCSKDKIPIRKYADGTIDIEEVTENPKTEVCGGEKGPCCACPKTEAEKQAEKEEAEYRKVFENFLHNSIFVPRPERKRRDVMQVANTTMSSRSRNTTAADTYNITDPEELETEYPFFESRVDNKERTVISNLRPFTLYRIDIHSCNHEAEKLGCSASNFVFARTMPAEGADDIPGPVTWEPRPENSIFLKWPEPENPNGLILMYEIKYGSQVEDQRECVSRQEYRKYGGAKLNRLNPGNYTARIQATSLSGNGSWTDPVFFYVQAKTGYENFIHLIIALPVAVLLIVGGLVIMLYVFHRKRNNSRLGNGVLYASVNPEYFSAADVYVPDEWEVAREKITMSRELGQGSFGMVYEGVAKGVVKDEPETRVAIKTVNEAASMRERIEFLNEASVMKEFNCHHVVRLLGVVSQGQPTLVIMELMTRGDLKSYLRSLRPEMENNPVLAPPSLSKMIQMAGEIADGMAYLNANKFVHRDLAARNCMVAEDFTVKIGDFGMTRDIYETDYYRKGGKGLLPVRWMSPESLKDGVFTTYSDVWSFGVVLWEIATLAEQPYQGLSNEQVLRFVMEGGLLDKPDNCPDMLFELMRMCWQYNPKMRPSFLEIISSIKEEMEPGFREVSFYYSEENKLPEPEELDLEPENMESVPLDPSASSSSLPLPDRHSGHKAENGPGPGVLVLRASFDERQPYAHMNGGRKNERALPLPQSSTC
T2 sequence (P07948 whole entry, canonical isoform): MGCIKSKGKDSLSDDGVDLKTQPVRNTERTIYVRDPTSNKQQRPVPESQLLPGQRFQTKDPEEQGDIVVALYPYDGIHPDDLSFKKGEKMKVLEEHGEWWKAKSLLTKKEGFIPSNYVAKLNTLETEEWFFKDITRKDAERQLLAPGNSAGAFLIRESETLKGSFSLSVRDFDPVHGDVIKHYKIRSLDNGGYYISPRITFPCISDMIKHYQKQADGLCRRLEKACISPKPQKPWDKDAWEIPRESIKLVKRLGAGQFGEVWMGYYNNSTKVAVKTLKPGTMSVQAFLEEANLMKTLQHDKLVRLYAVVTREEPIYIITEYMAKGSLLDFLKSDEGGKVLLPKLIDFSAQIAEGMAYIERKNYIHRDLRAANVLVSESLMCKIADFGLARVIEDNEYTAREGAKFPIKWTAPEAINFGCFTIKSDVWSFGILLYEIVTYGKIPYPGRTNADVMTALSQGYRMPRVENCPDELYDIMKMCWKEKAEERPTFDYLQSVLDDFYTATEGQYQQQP
Chain of PTK2 (FAK) (Q05397 whole entry): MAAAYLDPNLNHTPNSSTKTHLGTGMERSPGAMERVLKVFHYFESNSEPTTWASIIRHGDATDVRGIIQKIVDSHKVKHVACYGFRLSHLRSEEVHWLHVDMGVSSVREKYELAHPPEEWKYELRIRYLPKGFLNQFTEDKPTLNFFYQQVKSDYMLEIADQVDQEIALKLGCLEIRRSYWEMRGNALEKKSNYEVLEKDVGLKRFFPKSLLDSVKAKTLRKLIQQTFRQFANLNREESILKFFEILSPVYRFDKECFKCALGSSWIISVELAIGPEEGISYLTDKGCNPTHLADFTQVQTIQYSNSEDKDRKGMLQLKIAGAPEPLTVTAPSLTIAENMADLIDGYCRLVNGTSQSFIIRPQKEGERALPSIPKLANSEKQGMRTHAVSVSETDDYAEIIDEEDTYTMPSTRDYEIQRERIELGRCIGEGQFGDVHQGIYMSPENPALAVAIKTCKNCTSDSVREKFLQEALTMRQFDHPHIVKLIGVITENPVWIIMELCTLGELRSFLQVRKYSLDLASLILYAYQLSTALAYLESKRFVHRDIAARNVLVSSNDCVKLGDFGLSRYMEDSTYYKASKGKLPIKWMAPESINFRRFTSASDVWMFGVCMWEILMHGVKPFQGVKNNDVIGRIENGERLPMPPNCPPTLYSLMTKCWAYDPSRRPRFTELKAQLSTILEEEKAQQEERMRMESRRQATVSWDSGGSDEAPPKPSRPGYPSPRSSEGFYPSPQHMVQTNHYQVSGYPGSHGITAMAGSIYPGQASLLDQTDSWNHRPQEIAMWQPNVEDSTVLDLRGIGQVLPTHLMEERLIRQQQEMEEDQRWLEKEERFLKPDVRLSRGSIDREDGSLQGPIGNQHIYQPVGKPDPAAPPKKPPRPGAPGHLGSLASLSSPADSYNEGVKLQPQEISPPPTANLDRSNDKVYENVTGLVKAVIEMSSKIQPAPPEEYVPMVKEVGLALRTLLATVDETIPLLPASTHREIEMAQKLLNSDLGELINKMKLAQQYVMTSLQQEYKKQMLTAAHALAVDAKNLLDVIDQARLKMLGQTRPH
Chain of GSK3B (GSK3 beta) (P49841 whole entry): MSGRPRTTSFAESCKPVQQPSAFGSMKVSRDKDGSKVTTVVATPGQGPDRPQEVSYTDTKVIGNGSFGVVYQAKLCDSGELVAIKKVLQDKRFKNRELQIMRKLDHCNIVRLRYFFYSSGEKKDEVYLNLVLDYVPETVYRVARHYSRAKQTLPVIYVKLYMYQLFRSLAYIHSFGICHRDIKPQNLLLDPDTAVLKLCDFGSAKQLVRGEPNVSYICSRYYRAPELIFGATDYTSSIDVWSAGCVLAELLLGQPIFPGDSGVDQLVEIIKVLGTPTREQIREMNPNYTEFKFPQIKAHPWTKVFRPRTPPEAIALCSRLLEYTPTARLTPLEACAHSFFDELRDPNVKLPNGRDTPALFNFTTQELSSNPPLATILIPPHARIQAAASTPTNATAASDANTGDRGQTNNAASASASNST

Row | SMILES | inhibition at 1 µM [1] | inhibition at 3 µM [1] | inhibition at 10 µM [1] | inhibition at 1 µM [2] | inhibition at 3 µM [2] | inhibition at 10 µM [2] | inhibition at 1 µM [3] | inhibition at 3 µM [3] | inhibition at 10 µM [3] | inhibition at 1 µM [4] | inhibition at 3 µM [4] | inhibition at 10 µM [4] | inhibition at 1 µM [5] | inhibition at 3 µM [5] | inhibition at 10 µM [5] | inhibition at 1 µM [6] | inhibition at 3 µM [6] | inhibition at 10 µM [6] | inhibition at 1 µM [7] | inhibition at 3 µM [7] | other results
1 | O=C(CSc1nc2nccnc2c(=O)n1CCc1ccccc1)Nc1nccs1 [compound 1, PITCOIN1] | 7.35% | 2.59% | 5.33% | 8.23% | 7.27% | 6.69% | 2.87% | 1.81% | 2.24% | 2.62% | 1.7% | 2.95% | -2.31% | -1.35% | -2.49% | 1.93% | 0.317% | 0.625% | 4.94% | 3.7% | inhibition at 10 µM [7]: 2.3%; inhibition at 1 µM [8]: 6.59%; inhibition at 3 µM [8]: 10%; inhibition at 10 µM [8]: 0.714%; inhibition at 1 µM [9]: -11.8%; inhibition at 3 µM [9]: 23.9%; inhibition at 10 µM [9]: -9.1%; inhibition at 1 µM [10]: 8.8%; inhibition at 3 µM [10]: 5.6%; inhibition at 10 µM [10]: -0.465%
2 | CS(=O)(=O)Nc1cccc(-c2csc(NC(=O)CSc3nc4nccnc4c(=O)n3CCc3ccccc3)n2)c1 [compound 3, PITCOIN3] | 5.31% | 9.19% | 11.7% | 9.47% | 5.91% | 10.5% | -0.953% | -1.98% | -4.59% | 1.87% | 2.86% | 1.59% | -1.49% | 2.48% | -1.01% | -1.18% | 7.49% | 3.66% | 9.45% | 8.02% | inhibition at 10 µM [7]: 6.38%; inhibition at 1 µM [8]: 0.445%; inhibition at 3 µM [8]: 18.8%; inhibition at 10 µM [8]: 15.2%; inhibition at 1 µM [9]: -17.8%; inhibition at 3 µM [9]: -1.73%; inhibition at 10 µM [9]: -22.6%; inhibition at 1 µM [10]: -8.14%; inhibition at 3 µM [10]: 9.01%; inhibition at 10 µM [10]: 5.45%
